21 compounds from US8859505B2, “Cysteine protease inhibitors” (Medivir UK Ltd, priority 2010, dated 2014) can be followed below.

One may read the Ki as the dissociation constant of the complex between target and ligand, obtained from inhibition or displacement.

What all share (type): biochemical
One assay has as its target T1, human cathepsin S (Homo sapiens, UniProt P25774).
T1 construct: made in house; host or cells: baculovirus expression system
Nature of the assay: Cathepsin S Ki determination. As to conditions: baculovirus-expressed enzyme, boc-Val-Leu-Lys-AMC substrate, pH 6.5; read-out: Ki Cat. S. As to the method:
The assay uses baculovirus-expressed human cathepsin S and the boc-Val-Leu-Lys-AMC fluorescent substrate available from Bachem in a 384 well plate format, in which 7 test compounds can be tested in parallel with a positive control comprising a known cathepsin S inhibitor comparator.
280 μL/well of 12.5% DMSO are added to rows B-H of two columns of a 96 deep well polypropylene plate. 70 μL/well of substrate is added to row A. 2×250 μL/well of assay buffer (100 mM Na phosphate, 100 mM NaCl, pH 6.5) is added to row A, mixed, and double diluted down the plate to row H.
100 μL/well of assay buffer is added to columns 2-5 and 7-12 of 4 rows of a 96 well V bottom polypropylene plate. 200 μL/well of assay buffer is added to columns 1 and 6.
2 μl of each 10 mM test compound is added to a separate well on row A, columns 1-10. Add 90 μl assay buffer containing 1 mM DTT and 2 nM cathepsin S to each well of rows B-H and 180 μl to row A. Mix row A using a multichannel pipette and double dilute to row G. Mix row H and read in the fluorescent spectrophotometer. The readings are Prism data fitted to the competitive inhibition equation, setting S=100 μM and KM=100 μM to obtain an estimate of the up to a maximum of 100 μM.
The second test compound is added to column 6 of the top row, the third to column 1 of the second row etc. Add 1 μL of comparator to column 6 of the bottom row. Mix column 1 and double dilute to column 5. Mix column 6 and double dilute to column 10.
Using an 8-channel multistepping pipette set to 5×10 μL, distribute 10 μL/well of substrate to the 384 well assay plate. Distribute the first column of the substrate dilution plate to all columns of the assay plate starting at row A. The tip spacing of the multichannel pipette will correctly skip alternate rows. Distribute the second column to all columns starting at row B.
Using a 12-channel multistepping pipette set to 4×10 μL, distribute 10 μL/well of inhibitor to the 384 well assay plate. Distribute the first row of the inhibitor dilution plate to alternate rows of the assay plate starting at A1. The tip spacing of the multichannel pipette will correctly skip alternate columns. Similarly, distribute the second, third and fourth rows to alternate rows and columns starting at A2, B1 and B2 respectively.
Mix 20 mL assay buffer and 20 μL 1M DTT. Add sufficient cathepsin S to give 2 nM final concentration.
Using the a distributor such as a Multidrop 384, add 30 μL/well to all wells of the assay plate and read in fluorescent spectrophotometer such as an Ascent.
Fluorescent readings, (excitation and emission wavelengths 390 nm and 460 nm respectively, set using bandpass filters) reflecting the extent of enzyme cleavage of the fluorescent substrate, […] the inhibitor, are linear rate fitted for each well.
Fitted rates for all wells for each inhibitor are fitted to the competitive inhibition equation using SigmaPlot 2000 to determine V, Km and Ki values.
(§1) Potential inhibitors are screened using the above assay with variable concentrations of test compound. Reactions were initiated by addition of enzyme to buffered solutions of substrate and inhibitor. Ki values were calculated according to equation 1.
(§2) [formula] where v0 is the velocity of the reaction, V is the maximal velocity, S is the concentration of substrate with Michaelis constant of KM, and I is the concentration of inhibitor.

The target in assay [1] is T2, human recombinant cathepsin K (Homo sapiens, UniProt P43235).
T2 construct: made in house; host or cells: not fixed: E coli, Pichia or Baculovirus systems named as options
T2 sequence (P43235 115-329): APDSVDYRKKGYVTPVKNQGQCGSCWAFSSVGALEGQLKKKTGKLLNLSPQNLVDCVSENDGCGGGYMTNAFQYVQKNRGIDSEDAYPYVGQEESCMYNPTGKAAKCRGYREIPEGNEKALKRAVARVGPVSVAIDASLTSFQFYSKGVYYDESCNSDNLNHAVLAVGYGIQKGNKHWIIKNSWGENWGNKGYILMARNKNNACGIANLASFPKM
Nature of the assay: Determination of cathepsin K proteolytic catalytic activity (Ki). To be noted: fluorogenic substrate H-D-Ala-Leu-Lys-AMC; read-out: Ki Cat. K. On the procedure:
Convenient assays for cathepsin K are carried out using human recombinant enzyme, such as that described in PDB. • ID BC016058 standard; mRNA; HUM; 1699 BP. • DE Homo sapiens cathepsin K (pycnodysostosis), mRNA (cDNA clone MGC:23107 • RX MEDLINE;. RX PUBMED; 12477932. • DR RZPD; IRALp962G1234. • DR SWISS-PROT; P43235;
The recombinant cathepsin K can be expressed in a variety of commercially available expression systems including E coli, Pichia and Baculovirus systems. The purified enzyme is activated by removal of the prosequence by conventional methods.
Standard assay conditions for the determination of kinetic constants used a fluorogenic peptide substrate, typically H-D-Ala-Leu-Lys-AMC, and were determined in either 100 mM Mes/Tris, pH 7.0 containing 1 mM EDTA and 10 mM 2-mercaptoethanol or 100 mMNa phosphate, imM EDTA, 0.1% PEG4000 pH 6.5 or 100 mM Na acetate, pH 5.5 containing 5 mM EDTA and 20 mM cysteine, in each case optionally with […] as stabiliser. The enzyme concentration used was 5 nM. The stock substrate solution was prepared at 10 mM in DMSO. Screens were carried out at a fixed substrate concentration of 60 μM and detailed kinetic studies with doubling dilutions of substrate from 250 μM. The total DMSO concentration in the assay was kept below 3%. All assays were conducted at ambient temperature. Product fluorescence (excitation at 390 nm, emission at 460 nm) was monitored with a Labsystems Fluoroskan Ascent fluorescent plate reader. Product progress curves were generated over 15 minutes following generation of AMC product.
as §1, §2

Another assay has as its target human cathepsin L (Homo sapiens, UniProt P07711). Nature of the assay: Cathepsin L Ki. As to conditions: H-D-Val-Leu-Lys-AMC substrate, pH5.5; read-out: Ki Cat. L. As to the method:
The procedure above with the following amendments is used for the determination of Ki for cathepsin L.
The enzyme is commercially available human cathepsin L (for example Calbiochem). The substrate is H-D-Val-Leu-Lys-AMC available from Bahcem. The assay buffer is 100 mM sodium acetate 1 mM EDTA, pH5.5) The DMSO stock (10 mM in 100% DMSO) is diluted to 10% in assay buffer. Enzyme is prepared at 5 nM concentration in assay buffer plus 1 mM dithiothreitol just before use. 2 μL of 10 mM inhibitor made up in 100% DMSO is dispensed into row A. 10 μL of 50 μM substrate (=1/200 dilution of 10 mM stock in DMSO, diluted in assay buffer).
as §1, §2

Sequence of human cathepsin L (P07711 114-333): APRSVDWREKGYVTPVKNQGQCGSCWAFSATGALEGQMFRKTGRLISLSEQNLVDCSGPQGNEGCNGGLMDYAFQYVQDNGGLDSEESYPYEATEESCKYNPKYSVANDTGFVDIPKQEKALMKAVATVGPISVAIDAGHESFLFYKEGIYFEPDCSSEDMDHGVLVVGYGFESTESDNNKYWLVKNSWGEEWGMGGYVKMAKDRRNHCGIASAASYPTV
T1 sequence (P25774 115-331): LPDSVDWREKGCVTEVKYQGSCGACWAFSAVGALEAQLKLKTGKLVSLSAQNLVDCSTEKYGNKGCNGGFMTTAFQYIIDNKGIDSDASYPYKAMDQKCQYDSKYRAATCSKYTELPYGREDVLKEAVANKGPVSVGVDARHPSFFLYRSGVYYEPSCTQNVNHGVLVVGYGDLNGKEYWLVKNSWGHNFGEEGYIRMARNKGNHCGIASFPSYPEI

On to `CCOC(=O)NC(CC1(F)CCCC1)C(=O)NC1(C(=O)C(N)=O)CCC1` (stereo not drawn) [Example C6, [1-(1-Aminooxalyl-cyclobutylcarbamoyl)-2-(1-fluorocyclopentyl)-ethyl]-carbamic acid ethyl ester], for which the inhibitory constant (Ki) is 2.4 nM on human cathepsin S, 960 nM in assay [1] and 3700 nM on human cathepsin L.

Take `CC1(C[C@H](NC(=O)OC(C)(C)C)C(=O)NC2(C(=O)C(N)=O)CCC2)CCCC1` [Example C4]: the Ki at human cathepsin S came out at 1.1 nM; in assay [1], 720 nM; at human cathepsin L, 1700 nM.

Regarding `CC1(C[C@H](NC(=O)C(C)(C)F)C(=O)NC2(C(=O)C(N)=O)CC(F)(F)C2)CCCC1` [Example A31], the values for the Ki (at human cathepsin S; in assay [1]; on human cathepsin L) were 2.3 nM, 990 nM and 11000 nM, respectively.

On to `CC(C)(C)C[C@H](NC(=O)OC(C)(C)C)C(=O)N[C@]1(C(=O)C(N)=O)C[C@@H](F)C1` [Example C1, Tert-butyl(S)-1-((1r,3S)-1-(2-amino-2-oxoacetyl)-3-fluorocyclobutylamino)-4,4-dimethyl-1-oxopentan-2-ylcarbamate], for which the values for the Ki (at human cathepsin S; in assay [1]; on human cathepsin L) were 12 nM, 770 nM and 11000 nM, respectively.

Take `NC(=O)C(=O)C1(NC(=O)[C@H](CC2(F)CCCC2)NC(=O)C2(C(F)(F)F)CC2)CC1` [Example A38]: the inhibition constant (Ki) was 7.6 nM at human cathepsin S, 4600 nM in assay [1] and over 200000 nM on human cathepsin L.

In the case of `CC1(C[C@H](NC(=O)C2CC2)C(=O)NC2(C(=O)C(N)=O)CCC2)CCCC1` [Example A2, Cyclopropanecarboxylic acid [1-(1-aminooxalyl-cyclobutylcarbamoyl)-2-(1-methyl-cyclopentyl)-ethyl]-amide], the Ki turned out to be 0.3 nM at human cathepsin S, 630 nM in assay [1] and 1800 nM on human cathepsin L.

In the case of `CC1(C[C@H](NC(=O)OC(C)(C)C)C(=O)NC2(C(=O)C(N)=O)CC2)CCCC1` [Example C12], the Ki on human cathepsin S was determined as 2.7 nM; in assay [1], 1900 nM; on human cathepsin L, 3200 nM.

Turning to `Cc1ccc(C(=O)N[C@@H](CC2(F)CCCC2)C(=O)NC2(C(=O)C(N)=O)CCC2)cn1` [Example A7], the inhibition constant Ki came to 0.88 nM at human cathepsin S, 650 nM in assay [1] and 260 nM on human cathepsin L.

Regarding `NC(=O)C(=O)C1(NC(=O)[C@H](CC2CCC2)NC(=O)C2CC2(F)F)CCC1` (single isomer, unassigned) [Example A43-1], the Ki on human cathepsin S is 1.3 nM; in assay [1], 280 nM; on human cathepsin L it was 4200 nM.

Turning to `NC(=O)C(=O)C1(NC(=O)[C@H](CC2(F)CCCC2)NC(=O)c2ccc(F)cc2F)CCC1` [Example A17], the figures for the Ki (at human cathepsin S; in assay [1]; at human cathepsin L) were 0.67 nM, 490 nM and 490 nM, respectively.

As to `CCOC(=O)N[C@@H](CC1(F)CCCC1)C(=O)NC1(C(=O)C(N)=O)CCCC1` [Example C7, (S)-ethyl(1-((1-(2-amino-2-oxoacetyl)cyclopentyl)amino)-3-(1-fluorocyclopentyl)-1-oxopropan-2-yl)carbamate], the values for the Ki (on human cathepsin S; in assay [1]; on human cathepsin L) were 6.4 nM, 2500 nM and 21000 nM, respectively.

For `CC1(C[C@H](NC(=O)c2ccc(F)cc2)C(=O)NC2(C(=O)C(N)=O)CCC2)CCCC1` [Example A3], the figures for the Ki (on human cathepsin S; in assay [1]; at human cathepsin L) were 0.1 nM, 140 nM and 180 nM, respectively.

On to `CC(C)(C)OC(=O)N[C@@H](CC1(F)CCCC1)C(=O)NC1(C(=O)C(N)=O)CC1` [Example C11], for which the Ki at human cathepsin S was found to be 3.7 nM; in assay [1], 1200 nM; on human cathepsin L, 2600 nM.

`CCOC(=O)N[C@@H](CC1(F)CCCC1)C(=O)N[C@]1(C(=O)C(N)=O)C[C@@H](F)C1` [Example C5, [1-(1-Aminooxalyl-3-fluoro-cyclobutylcarbamoyl)-2-(1-fluoro-cyclopentyl)-ethyl]-carbamic acid ethyl ester]: the inhibition constant Ki on human cathepsin S was found to be 2.8 nM; in assay [1] it was 1100 nM; on human cathepsin L, 5300 nM.

Take `NC(=O)C(=O)[C@]1(NC(=O)[C@H](CC2(F)CCCC2)NC(=O)c2cccc(-n3ccnc3)c2)C[C@H](F)C1` [Example A1, N-[1-(1-Aminooxalyl-3-fluoro-cyclobutylcarbamoyl)-2-(1-fluoro-cyclopentyl)-ethyl]-3-imidazol-1-yl-benzamide]: the results for the inhibitory constant (Ki) (at human cathepsin S; in assay [1]; on human cathepsin L) were 0.084 nM, 500 nM and 230 nM, respectively.

As to `CC1(C[C@H](NC(=O)C(C)(C)C(F)(F)F)C(=O)NC2(C(=O)C(N)=O)CCC2)CCCC1` [Example A24], the inhibition constant Ki at human cathepsin S was 1.2 nM; in assay [1] it was 300 nM; on human cathepsin L, 3000 nM.

Turning to `NC(=O)C(=O)C1(NC(=O)[C@H](CC2(F)CCCC2)NC(=O)C2(C(F)(F)F)CCC2)CCC1` [Example A28], the Ki was 31 nM at human cathepsin S, 15000 nM in assay [1] and 23000 nM on human cathepsin L.

With `NC(=O)C(=O)C1(NC(=O)[C@H](CC2(F)CCCC2)NC(=O)C2(C(F)(F)F)CC2)CCC1` [Example A25], the figures for the inhibition constant Ki (at human cathepsin S; in assay [1]; at human cathepsin L) were 3.6 nM, 1300 nM and 14000 nM, respectively.

Regarding `NC(=O)C(=O)C1(NC(=O)[C@H](CC2(F)CCCC2)NC(=O)c2ccccn2)CCC1` [Example A34], the values for the inhibitory constant (Ki) (on human cathepsin S; in assay [1]; on human cathepsin L) were 0.77 nM, 180 nM and 710 nM, respectively.

With `CCC(=O)N[C@@H](CC1(C)CCCC1)C(=O)NC1(C(=O)C(N)=O)CCC1` [Example A4], the Ki on human cathepsin S was 4.9 nM; in assay [1], 2300 nM; on human cathepsin L, 12000 nM.

Turning to `CC(C)(C)OC(=O)NC(CC1(F)CCCC1)C(=O)NC1(C(=O)C(N)=O)CC(F)C1` (stereo not drawn) [Example C3], the inhibition constant Ki at human cathepsin S was 1.3 nM; in assay [1] it was 440 nM; at human cathepsin L it was 1700 nM.
